Measured values taken from patent US9481671B2, “Glucosylceramide synthase inhibition for the treatment of collapsing glomerulopathy and other glomerular disease” (Genzyme Corporation, priority 2008, dated 2016).

Tested on: GM3
Assay: GM3 Elisa Assay (B16-FO cells)
Format: cell-based
Settings: 48 h, Table 3, 2 days with compound, read-out: IC50_uM_Mean
Method: B16-FO cells from ATCC (American Tissue Culture Collection) were grown in DMEM media (ATCC) with 10% Fetal Bovine Serum (Hyclone) and Pen/Step/Glutamine (Biowhittaker). 4000 cells per well were plated on collagen coated plates (BD) and allowed to attach for 6 hours in an incubator (37 degrees, 5% CO2). After 6 hours the compounds and controls were added to the wells, the plates mixed and returned to the incubator for 2 days. Day of assay the cells were fixed for 20 minutes with 1% formaldehyde and then washed with Tris Buffered Saline (TBS) 3 times, 150 μl of TBS was left in the wells and 50 μl of goat serum (Invitrogen) was added, the plates mixed and incubated for 1 hour at room temperature. The plates were flicked and the cells incubated with the monoclonal Antibody to GM3 (NeuAc) (Cosmo) for 45 minutes as room temperature. The plates were then washed 3 times with TBS, leaving 150 μl of TBS in the wells and Peroxidase AffinPure F (ab′) 2 frag Gt Anti-mouse IgM, μ Chain Specific (Jackson Immno Research) was added in 50 μl, the plates mixed and incubated for 45 minutes at room temperature. The plates were washed 3 times with TBS, flicked and blotted and 100 μl of Quantablu (Pierce) was added to the wells and incubated for 1 hour then read on a Fluorometer at Ex 325 and Em 420. The data was then analyzed using standard programs.

Compound | IC50
O=C(CCCc1nc(C2CC2)no1)N[C@H](CN1CCCC1)[C@H](O)c1ccc2c(c1)OCCO2 [Compound 648] | 1 to 3 µM
Cc1noc(CCCCC(=O)N[C@H](CN2CCCC2)[C@H](O)c2ccc3c(c2)OCCO3)n1 [Compound 649] | 3 to 10 µM
